Laboratory results reported in paper PMC4956231, “Molecular Mechanisms for Drug Hypersensitivity Induced by the Malaria Parasite’s Chloroquine Resistance Transporter” (PLoS Pathogens, 2016).
Like-named read-outs stand apart in the source and are kept apart here. Marks after values point to notes of the source that are not given here.

Columns and labels:
PfCRT^Dd2 [1] = test: [3H]drug transport into Xenopus oocytes expressing PfCRT; assay type: cell-based, Plasmodium falciparum; details: oocytes expressing PfCRT^Dd2; [3H]drug […], pH 5.0, 1 μM unlabeled drug (S4 Fig)
Method: (§1) For each treatment, 10 oocytes were transferred to a 5 mL polystyrene round bottom tube (Falcon) and washed twice with 3.5 mL of ND96 buffer, with the residual buffer removed by pipette. […] The assay was terminated by removing the reaction buffer with a pipette and washing the oocytes twice with 3.5 mL of ice-cold ND96 buffer. Each oocyte was transferred to a separate well of a white 96-well plate (NUNC or PerkinElmer), incubated overnight at room temperature in 30 μL of 10% SDS, and mixed on an orbital shaker the following day for approximately 5 min. The lysed oocyte was then combined with 150 μL of MicroScint-40 microscintillant (PerkinElmer), the plate covered with a TopSeal-A (PerkinElmer), and the radioactivity measured with a PerkinElmer MicroBeta^2 microplate liquid scintillation analyzer.

PfCRT^K1 [2] = test: as above; assay type: cell-based, Plasmodium falciparum; details: for rate of uptake mediated by PfCRT^K1, greater than that measured for PfCRT^Dd2: S4 Fig; for rate of uptake: oocytes expressing PfCRT^K1, [3H]drug […], pH 5.0, 1 μM unlabeled drug (Fig 2B, C); for rate of transport, times lower than that measured for CQ: total drug 1.25 μM vs ~12-fold higher total CQ
Method: as §1

76N-PfCRT^K1 = test: as above; assay type: cell-based, Plasmodium falciparum; details: transport via 76N-PfCRT^K1 in oocytes, CQ pH 6.0, quinine and quinidine pH 5.0; for Km: read-out: Apparent Km
Method: as §1
Note that noninjected oocytes and oocytes expressing PfCRT^3D7 take up [^3H]CQ to similar (low) levels via simple diffusion of the neutral species of the drug; this represents the ‘background’ level of [^3H]CQ accumulation in oocytes (refer to Martin et al. for full data and discussion).

76I-PfCRT^K1 [3] = molecular target: T1, 76I-PfCRT^K1 (Plasmodium falciparum, UniProt Q9N623, A220S/K76I/M74I/N326S/N75E/Q271E/R371I); assay type: cell-based; details: for Apparent Vmax: transport via 76I-PfCRT^K1 in oocytes, CQ pH 6.0, quinine and quinidine pH 5.0
T1 sequence (Q9N623 whole entry A220S/K76I/M74I/N326S/N75E/Q271E/R371I): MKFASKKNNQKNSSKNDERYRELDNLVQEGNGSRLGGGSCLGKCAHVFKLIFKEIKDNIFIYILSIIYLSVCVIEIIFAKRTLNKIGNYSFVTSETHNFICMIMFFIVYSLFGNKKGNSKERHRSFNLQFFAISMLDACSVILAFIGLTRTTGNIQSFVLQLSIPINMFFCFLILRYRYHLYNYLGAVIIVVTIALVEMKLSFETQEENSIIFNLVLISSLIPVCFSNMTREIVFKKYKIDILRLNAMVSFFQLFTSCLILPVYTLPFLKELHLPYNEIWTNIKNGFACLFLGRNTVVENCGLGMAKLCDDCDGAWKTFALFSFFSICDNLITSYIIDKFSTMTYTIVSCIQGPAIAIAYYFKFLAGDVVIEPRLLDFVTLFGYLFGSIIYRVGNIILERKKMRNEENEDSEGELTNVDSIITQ
Method: as §1

noninjected oocytes = test: [3H]drug uptake into noninjected oocytes (background accumulation); assay type: cell-based, Xenopus laevis; details: [3H]drug […]
Method: as §1

PfCRT^K1 [4] = test: Inhibition of [3H]amantadine transport in oocytes; assay type: cell-based, Plasmodium falciparum; details: via PfCRT^K1 in oocytes
Method: as §1

76I,369F-PfCRT^K1 = 76I,369F-PfCRT^K1 (Plasmodium falciparum, UniProt Q9N623, A220S/K76I/M74I/N326S/N75E/Q271E/R371I/V369F); test: Inhibition of [3H]amantadine transport in oocytes; assay type: cell-based; details: via 76I,369F-PfCRT^K1 in oocytes
Sequence of 76I,369F-PfCRT^K1 (Q9N623 whole entry A220S/K76I/M74I/N326S/N75E/Q271E/R371I/V369F): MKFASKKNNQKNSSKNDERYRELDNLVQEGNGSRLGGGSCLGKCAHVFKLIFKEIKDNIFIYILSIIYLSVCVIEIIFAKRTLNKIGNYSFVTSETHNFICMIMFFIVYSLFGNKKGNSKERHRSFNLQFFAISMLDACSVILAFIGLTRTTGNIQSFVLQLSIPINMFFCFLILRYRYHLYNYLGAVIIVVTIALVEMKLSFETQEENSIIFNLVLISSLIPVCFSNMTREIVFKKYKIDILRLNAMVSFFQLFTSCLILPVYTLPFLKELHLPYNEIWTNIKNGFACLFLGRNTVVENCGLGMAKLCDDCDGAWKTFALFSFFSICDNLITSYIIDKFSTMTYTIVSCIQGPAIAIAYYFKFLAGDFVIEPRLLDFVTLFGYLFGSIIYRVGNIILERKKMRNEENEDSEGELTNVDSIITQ
Method: as §1

76I-PfCRT^K1 [5] = molecular target: T1, 76I-PfCRT^K1; test: Inhibition of [3H]amantadine transport in oocytes; assay type: cell-based; details: via 76I-PfCRT^K1 in oocytes
Method: as §1

PfCRT^CQR = details: oocyte system, inhibitor of PfCRT^CQR; cited from earlier work
PfCRT^Dd2 [6] = molecular target: PfCRT^Dd2 (Plasmodium falciparum, UniProt Q9N623, A220S/I356T/K76T/M74I/N326S/N75E/Q271E/R371I); assay type: cell-based; details: extracellular concentrations of 1 and 2 mM; pH 5.5; 15 μM unlabeled CQ
Sequence of PfCRT^Dd2 (Plasmodium falciparum, UniProt Q9N623, A220S/I356T/K76T/M74I/N326S/N75E/Q271E/R371I) (Q9N623 whole entry M74I/N75E/K76T/A220S/Q271E/N326S/I356T/R371I): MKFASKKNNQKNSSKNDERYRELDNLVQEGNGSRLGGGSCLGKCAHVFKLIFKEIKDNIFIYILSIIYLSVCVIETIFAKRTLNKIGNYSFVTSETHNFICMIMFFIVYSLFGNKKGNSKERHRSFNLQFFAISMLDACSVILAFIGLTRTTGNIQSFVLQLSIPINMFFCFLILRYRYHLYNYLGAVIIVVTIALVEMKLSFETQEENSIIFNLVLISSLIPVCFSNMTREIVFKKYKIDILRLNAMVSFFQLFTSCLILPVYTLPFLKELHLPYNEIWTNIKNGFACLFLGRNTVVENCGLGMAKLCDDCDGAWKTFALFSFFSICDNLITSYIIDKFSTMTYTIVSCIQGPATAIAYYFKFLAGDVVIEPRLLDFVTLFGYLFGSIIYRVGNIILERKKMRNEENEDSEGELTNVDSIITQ
Method: The uptake of [^3H]CQ (0.25 μM) was measured in the absence (solvent control) or presence of the test compounds (extracellular concentrations of 1 and 2 mM). The assays were conducted at pH 5.5 and in the presence of 15 μM unlabeled CQ.

[7] = test system: noninjected oocytes and oocytes expressing PfCRT variants or PfNT1; test: Trans-stimulation of [3H]CQ uptake by microinjected compound, all oocyte types; assay type: cell-based, Plasmodium falciparum; details: any of the oocyte types, estimated intracellular concentrations 5 and 10 mM
Method: A subset of experiments measured the ability of unlabeled amantadine to trans-stimulate the uptake of [^3H]CQ into the oocyte. Immediately prior to the commencement of the experiment, the oocytes (days 3–4 post-injection of the cRNA) were microinjected with either amantadine (estimated intracellular concentrations of 1, 2.5, 5, 10, 15, or 20 mM) or a control treatment (buffer, spermine, or histidine; the estimated intracellular concentrations of spermine and histidine were 5 and 10 mM). The volume injected was 50 nL and the intracellular concentrations were calculated using previous estimates of the volume of stage V-VI oocytes (~400 nL [77]). The resealed oocytes were then incubated at 16–18°C in OR^2+ buffer for approximately 5 min and the influx of [^3H]CQ was measured as described above. […] The Michaelis-Menten equation was then fitted to the data to derive the kinetic parameters for the trans-stimulation of [^3H]CQ transport by amantadine.

[8] = test system: parasites carrying isoforms of PfCRT^CQR; details: in vitro studies, cited from earlier work
[9] = test system: C=C[C@H]1C[N@@]2CC[C@H]1C[C@@H]2[C@@H](O)c1ccnc2ccc(OC)cc12; test: cells, lysate or membranes; details: other: transport via 76I-PfCRT^K1 in oocytes; CQ pH 6.0, quinine and quinidine pH 5.0; 27.5 °C
[10] = test system: C=C[C@H]1C[N@@]2CC[C@H]1C[C@H]2[C@H](O)c1ccnc2ccc(OC)cc12; test: cells, lysate or membranes; details: other: transport via 76I-PfCRT^K1 in oocytes; CQ pH 6.0, quinine and quinidine pH 5.0; 27.5 °C
[11] = transport via PfCRT^K1 in oocytes, CQ pH 6.0, quinine and quinidine pH 5.0
[12] = pH 5.0, 1 μM unlabeled drug (Fig 2B, C)
[13] = pH 5.0, 1 μM unlabeled drug (S4 Fig)
[14] = artemisinin and/or dihydroartemisinin

For `C=C[C@H]1C[N@@]2CC[C@H]1C[C@H]2[C@H](O)c1ccnc2ccc(OC)cc12` [quinine], the rate of uptake (PfCRT^Dd2 [1]) was 0.44 ± 0.04 pmol per oocyte/h, the “rate of uptake mediated by PfCRT^K1, greater than that measured for PfCRT^Dd2” value (PfCRT^K1 [2]) was 17–35% and the rate of uptake (PfCRT^K1 [2]) was 0.55 ± 0.03 pmol per oocyte/h. The “rate of transport, times lower than that measured for CQ” value (PfCRT^K1 [2]) was 10–15 times, the “Apparent Vmax” value (PfCRT^K1 [2]; [11]) was 10.3 ± 0.8 (7) pmol per oocyte/h and the “Apparent Vmax” value (76N-PfCRT^K1) was 13.0 ± 1.0^d,f (6) pmol per oocyte/h. For the same compound, the Km (76N-PfCRT^K1) was 41 ± 2.6 µM, the “Vmax of 76I-PfCRT^K1, times lower than the value obtained for PfCRT^K1” value (76I-PfCRT^K1 [3]; quinine transport) was ~ 115 times and the “Apparent Vmax” value (76I-PfCRT^K1 [3]) was 0.09 ± 0.01^c,f (4) pmol per oocyte/h. For the same compound, the rate of uptake (noninjected oocytes; [12]) was 0.10 ± 0.01 pmol per oocyte/h and the rate of uptake (noninjected oocytes; [13]) was 0.10 ± 0.01 pmol per oocyte/h.

With `CC(C)(C)NC(=O)[C@@H]1C[C@@H]2CCCC[C@@H]2CN1C[C@@H](O)[C@H](Cc1ccccc1)NC(=O)[C@H](CC(N)=O)NC(=O)c1ccc2ccccc2n1` [saquinavir] the “effect on [3H]amantadine transport” value (PfCRT^K1 [4]) was “inhibited”, the “effect on [3H]amantadine transport” value (76I,369F-PfCRT^K1) was “inhibited” and the “effect on [3H]amantadine transport” value (76I-PfCRT^K1 [5]) was “inhibited”. For the same compound, the IC50 (PfCRT^CQR) was 13 ± 1 µM.

For `NCCCNCCCCNCCCN` [spermine], the “effect on accumulation of [3H]CQ in oocytes expressing PfCRT” value (PfCRT^Dd2 [6]) was “do not inhibit” and the “effect on [3H]CQ uptake (trans-stimulation)” value [7] was “neither spermine nor histidine altered”.

For `C[C@H]1[C@@H](O)O[C@@H]2O[C@@]3(C)CC[C@H]4[C@H](C)CC[C@@H]1[C@@]24OO3` [dihydroartemisinin], the “decrease in the IC50 induced by isoforms of PfCRT^CQR (hypersensitivity)” value (from here on “decrease in the IC50 induced by isoforms”) [8, 14] is listed as 1.9–3.7 fold.

In the case of `C[C@@H]1CC[C@H]2[C@@H](C)C(=O)O[C@@H]3O[C@@]4(C)CC[C@@H]1[C@]32OO4` [artemisinin], the “decrease in the IC50 induced by isoforms” value [8, 14] is given as 1.9–3.7 fold.

In the case of `COc1ccc(CCN(C)CCCC(C#N)(c2ccc(OC)c(OC)c2)C(C)C)cc1OC` (centres unmarked) [verapamil], the “effect on [3H]amantadine transport” value (PfCRT^K1 [4]) is reported as “inhibited”, the “effect on [3H]amantadine transport” value (76I,369F-PfCRT^K1) is reported as “inhibited” and the “effect on [3H]amantadine transport” value (76I-PfCRT^K1 [5]) is reported as “inhibited”.

With `C=C[C@H]1C[N@@]2CC[C@H]1C[C@@H]2[C@@H](O)c1ccnc2ccc(OC)cc12` [quinidine] the rate of uptake (PfCRT^Dd2 [1]) was 0.30 ± 0.07 pmol per oocyte/h, the “rate of uptake mediated by PfCRT^K1, greater than that measured for PfCRT^Dd2” value (PfCRT^K1 [2]) was 17–35% and the rate of uptake (PfCRT^K1 [2]) was 0.38 ± 0.08 pmol per oocyte/h. The “rate of transport, times lower than that measured for CQ” value (PfCRT^K1 [2]) was 10–15 times, the “Apparent Vmax” value (PfCRT^K1 [2]; [11]) was 24.4 ± 1.6 (7) pmol per oocyte/h and the Km (PfCRT^K1 [2]; transport via PfCRT^K1 in oocytes, CQ pH 6.0, quinine and quinidine pH 5.0, 76K-PfCRT^K1 control subtracted, read-out: Apparent Km) was 84 ± 1 µM. The “Apparent Vmax” value (76N-PfCRT^K1) was 14.1 ± 0.9^e,g (6) pmol per oocyte/h, the Km (76N-PfCRT^K1) was 94 ± 4 µM and the “Apparent Vmax” value (76I-PfCRT^K1 [3]) was 7.2 ± 0.5^e,g (6) pmol per oocyte/h. For the same compound, the rate of uptake (noninjected oocytes; [12]) was 0.063 ± 0.010 pmol per oocyte/h and the rate of uptake (noninjected oocytes; [13]) was 0.05 ± 0.01 pmol per oocyte/h.

With `N[C@@H](Cc1c[nH]cn1)C(=O)O` [histidine] the “effect on accumulation of [3H]CQ in oocytes expressing PfCRT” value (PfCRT^Dd2 [6]) was “do not inhibit” and the “effect on [3H]CQ uptake (trans-stimulation)” value [7] was “neither spermine nor histidine altered”.

For “76I-PfCRT^K1 (Plasmodium falciparum; A220S/K76I/M74I/N326S/N75E/Q271E/R371I)”, the Km [9] was 24.1 ± 3.0^f (6) μM and the Km [10] was 0.42 ± 0.04^c,f (4) μM.

In the case of `CCCCN(CCCC)CC(O)c1cc(Cl)cc2c1-c1ccc(Cl)cc1/C2=C/c1ccc(Cl)cc1` (centres unmarked) [lumefantrine], the “decrease in the IC50 induced by isoforms” value [8] is given as 1.5–3.2 fold.
